This experiment addresses T1, human IL-17AA (Homo sapiens, UniProt Q16552).
T1 construct: host or cells: HEK (human embryonic kidney) cells
T1 sequence (Q16552 24-155) 1: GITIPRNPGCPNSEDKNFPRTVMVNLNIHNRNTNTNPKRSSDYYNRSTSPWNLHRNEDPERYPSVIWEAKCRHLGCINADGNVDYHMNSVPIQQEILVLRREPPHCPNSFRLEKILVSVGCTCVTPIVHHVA
T1 sequence (Q16552 24-155) 2: T1 sequence (Q16552 24-155) 1
The experiment in a line: IL-8 release assay in human epithelial keratinocytes adult (HEKa). The note with it: HEKa cells; 3 ng/mL HEK-human IL-17AA + 10 ng/mL human TNFalpha; 68-72 hours; IL-8 by HTRF; read-out: Rel EC50 IL-8 release assay. It is filed as cell-based. As to the method:
Example 8: IL-8 Release Assay in Human Epithelial Keratinocytes Adult (HEKa)
Keratinocytes were seeded at 3500 cells/well in 384-well ViewPlates (Perkin Elmer) in Epilife medium (Thermo Fisher) containing human keratinocyte growth supplement (HKGS) without hydrocortisone and incubated in a humid incubator at 37° C., 5% CO2, overnight. The following day growth medium was removed and 25 μl fresh Epilife medium was added. 75 nL test compound in100% DMSO was added into each well reserved for test compounds, by the use of acoustic pipetting. The remaining wells received an equal volume of DMSO only, as vehicle control, or terfenadine in DMSO, as a positive control for any cytotoxic compounds. Subsequently, another 25 μL Epilife medium was added to each well. Finally, wells containing test compounds and wells prepared to yield maximum stimulation received 25 μL of 9 ng/mL recombinant, human embryonic kidney cell (HEK)-derived human IL-17AA+30 ng/mL human TNF-alpha, in Epilife medium. Wells prepared to define 100% inhibition of IL-17 effects received 25 μL of 30 ng/mL human TNF-alpha alone, in Epilife medium. Final concentrations were 3 ng/mL HEK-human IL-17AA+10 ng/mL human TNFalpha (maximum stimulation) and 10 ng/mL human TNFalpha alone (100% inhibition, Emax), respectively. Cells were incubated for 68-72 hours in the incubator. IL-8 released from the cells was measured by the use of a commercial homogenous time-resolved fluorescence (HTRF) assay (CisBio). 2 μL cell culture supernatant was transferred to a 384-well Proxiplate. 5 μL HTRF reagent was added and the plates were incubated sealed in the dark for 3-22 hours at room temperature. Time-resolved fluorescence was read at 665 vs 620 nm, with excitation at 320 nm, and IL-8 levels were calculated as percent of controls. Reduction of the amount of secreted IL-8 indicates decreased IL-17 signaling. Concentration response curves were fitted by the use of a four-parameter logistic equation. Relative IC50 and Emax were reported from curves showing acceptable fit (r^2>0.9). Cytotoxicity was measured in the cell-containing Viewplates following addition of 7 μL PrestoBlue (Thermo Fisher) and incubation for 2.5-3 hours at room temperature, by measuring fluorescence at 615 nm (excitation at 535 nm). Fluorescence was directly proportional to the amount of metabolic activity. Reduction of fluorescence signal indicated cytotoxicity.
Compounds of the present invention were tested in the IL-8 release assay in human epithelial keratinocytes.
On the technique in general: TR-FRET usually uses a lanthanide donor and a delayed reading to cut background.
In general, EC50 refers to the midpoint of the concentration-response curve. With `Cc1n[nH]c(C)c1-c1ccc(NC(=O)C(c2nnc(-c3ccnn3C(C)C)[nH]2)C(C2CC2)C2CC2)cc1` (single isomer, unassigned) [Example 70, 3,3-dicyclopropyl-N-[4-(3,5-dimethyl-1H-pyrazol-4-yl)phenyl]-2-[5-(2-isopropylpyrazol-3-yl)-4H-1,2,4-triazol-3-yl]propanamide], the EC50 was 27 nM.
With `Cc1n[nH]c(C)c1-c1ccc(NC(=O)C(c2nnc(-c3ccnn3C(C)C)[nH]2)C(C2CC2)C2CC2)cc1` (single isomer, unassigned) [Example 71, 3,3-dicyclopropyl-N-[4-(3,5-dimethyl-1H-pyrazol-4-yl)phenyl]-2-[5-(2-isopropylpyrazol-3-yl)-4H-1,2,4-triazol-3-yl]propanamide], the EC50 was over 625 nM.
Consider `Cc1n[nH]c(C)c1-c1ccc(NC(=O)C(c2nnc(-c3ccccc3)[nH]2)C(C2CC2)C2CC2)cc1` (stereo not drawn) [Example 1, 3,3-dicyclopropyl-N-[4-(3,5-dimethyl-1H-pyrazol-4-yl)phenyl]-2-(5-phenyl-4H-1,2,4-triazol-3-yl)propanamide], for which the EC50 was 290 nM.
Turning to `Cc1n[nH]c(C)c1-c1ccc(NC(=O)C(c2nc(-c3ccccc3)c[nH]2)C(C2CC2)C2CC2)cc1` (stereo not drawn) [Example 2, 3,3-dicyclopropyl-N-[4-(3,5-dimethyl-1H-pyrazol-4-yl)phenyl]-2-(4-phenyl-1H-imidazol-2-yl)propanamide], the EC50 was found to be 310 nM.
Regarding `Cc1n[nH]c(C)c1-c1ccc(NC(=O)C(c2nc(-c3ccccc3)c(Cl)[nH]2)C(C2CC2)C2CC2)cc1` (stereo not drawn) [Example 3, 2-(5-chloro-4-phenyl-1H-imidazol-2-yl)-3,3-dicyclopropyl-N-[4-(3,5-dimethyl-1H-pyrazol-4-yl)phenyl]propanamide], the EC50 is 3100 nM.
Consider `Cc1n[nH]c(C)c1-c1ccc(NC(=O)C(c2nnc[nH]2)C(C2CC2)C2CC2)cc1` (stereo not drawn) [Example 4, 3,3-dicyclopropyl-N-[4-(3,5-dimethyl-1H-pyrazol-4-yl)phenyl]-2-(4H-1,2,4-triazol-3-yl)propanamide], for which the EC50 was determined as 2900 nM.
In the case of `Cc1n[nH]c(C)c1-c1ccc(NC(=O)C(c2nnc(-c3ccccc3F)[nH]2)C(C2CC2)C2CC2)cc1` (stereo not drawn) [Example 5, 3,3-dicyclopropyl-N-[4-(3,5-dimethyl-1H-pyrazol-4-yl)phenyl]-2-[5-(2-fluorophenyl)-4H-1,2,4-triazol-3-yl]propanamide] it was 390 nM.
In the case of `Cc1n[nH]c(C)c1-c1ccc(NC(=O)C(c2ncc[nH]2)C(C2CC2)C2CC2)cc1` (stereo not drawn) [Example 6, 3,3-dicyclopropyl-N-[4-(3,5-dimethyl-1H-pyrazol-4-yl)phenyl]-2-(1H-imidazol-2-yl)propanamide] it was 1300 nM; in that of `Cc1n[nH]c(C)c1-c1ccc(NC(=O)C(c2nc(-c3ccccc3)c(C)[nH]2)C(C2CC2)C2CC2)cc1` (stereo not drawn) [Example 7, 3,3-dicyclopropyl-N-[4-(3,5-dimethyl-1H-pyrazol-4-yl)phenyl]-2-(5-methyl-4-phenyl-1H-imidazol-2-yl)propanamide], 800 nM; in that of `COc1ccccc1-c1cnc(C(C(=O)Nc2ccc(-c3c(C)n[nH]c3C)cc2)C(C2CC2)C2CC2)[nH]1` (stereo not drawn) [Example 9, 3,3-dicyclopropyl-N-[4-(3,5-dimethyl-1H-pyrazol-4-yl)phenyl]-2-[5-(2-methoxyphenyl)-1H-imidazol-2-yl]propanamide], 450 nM.
For the compound `Cc1n[nH]c(C)c1-c1ccc(NC(=O)C(c2nnc(C3CCCC3)[nH]2)C(C2CC2)C2CC2)cc1` (stereo not drawn) [Example 10, 2-(5-cyclopentyl-4H-1,2,4-triazol-3-yl)-3,3-dicyclopropyl-N-[4-(3,5-dimethyl-1H-pyrazol-4-yl)phenyl]propanamide], the EC50 was determined as 1900 nM.
In the case of `Cc1n[nH]c(C)c1-c1ccc(NC(=O)C(c2nnc(-c3ccnn3C(C)C)[nH]2)C(C2CC2)C2CC2)nc1F` (stereo not drawn) [Example 11, 3,3-dicyclopropyl-N-[5-(3,5-dimethyl-1H-pyrazol-4-yl)-6-fluoro-2-pyridyl]-2-[5-(2-isopropylpyrazol-3-yl)-4H-1,2,4-triazol-3-yl]propanamide] it was 93 nM.

The values are drawn from patent US20230227435A1, “SMALL MOLECULE MODULATORS OF IL-17” (LEO PHARMA A/S, priority 2020, published 2023).
